Ends that are not written are not given here.
Key:
[1] = target: T1, human uPA (Homo sapiens, UniProt P00749); assay: Inhibition of uPA catalytic activity, fluorogenic substrate; assay type: biochemical; conditions: PEP333 leader-core peptide, ProcM-modified; 1.5 nM human uPA; 50 µM Z-Gly-Gly-Arg 7-amido-4-methylcoumarin; 10 mM Tris-HCl pH 7.4, 5% DMSO; 25°C, 30 min; fluorescence 355/460 nm; experiment repeated three times; read-out: inhibitory constant Ki
T1 construct: purchased ProsPec enz-264-c
Protocol: Determination of inhibitory activit y of lanthipeptides
The inhibitory activities of ProcM-modified and non- modified anti-uPA peptides were determined as previously described2. In brief, 1.5 nM human uPA (ProsPec, # enz-264- c; purified by size exclusion chromatography) were incubated with 50 µM of the fluorogenic substrate Z-Gly-Gly-Arg 7 -am ido-4-methylcoumarin hydrochloride (Santa Cruz Biotechnology, # sc-208012) and different concentrations of anti-uPA peptides. Substrate and peptides were diluted in 10 mM Tris-HCl (pH 7.4), 150 mM NaCl, 10 mM MgCl2, 1 m M CaCl2, 0.1% (w v-1) BSA, 0.01% Triton X-100, 5% (v v-1) DMSO buff er. The uPA activity was measured by monitoring the change in fluorescence intensity after an incubation step at 25°C for 30 minutes (black 96 well plate with clear flat bottom, Corning CellBIND, # 3340; excitation at 355 nm, emission recorded at 460 nm, Tecan M200pro, […]). A […]
Anal ysis of phage-selected peptides by mass spectrometry
Samples were analyzed by FTMS using a Shimadzu UFLC system (Shimadzu, Den Bosch, The Netherlands) coupled on- line via the HESI interface with a LTQ–Orbitrap- XL mass spectrometer (Thermo Fisher Scientific., San Jose, CA). Samples were loaded onto an Acquity UPLC, BEH C18. 50 x 2.1mm, 1.7µM (Waters, Ireland). […]

[2] = tested on: streptavidin; assay: ELISA for streptavidin binding of purified His6-tagged leader-core peptides; conditions: plates coated with 100 nM streptavidin; for streptavidin binding, effect of reducing conditions: 10 mM DTT vs non-reducing; for streptavidin binding, dependence on ProcM co-expression: peptide produced with or without ProcM, 1 h room temperature, anti-His detection
Protocol: Peptide candidates identified by phage display were produced and purified as leader-core peptides as described above. 384 well Maxisorp plates were coated with uPA or streptavidin (100 nM each) overnight at 4 °C. After washing and blocking the plates as described above, serial dilutions of the peptide preparations in PBST containing 0.5% (w v^−1) BSA (and 10 mM DTT for anti-streptavidin replicates) were added in duplicate, and plates incubated for 1 h at room temperature, shaking. Detection of bound peptides with AP-conjugated anti-His IgG was performed as described above.

[3] = tested on: nisin-sensitive L. lactis NZ9000; assay: Growth inhibition, filter-disc bioactivity assay (nisin); assay type: cell-based; conditions: NisA produced as C-terminal MBP fusion in E. coli with NisBC; 20 µM leader-core peptide, trypsin treated; 40 µl on filter disc
Source text: (§1) MBP IEGR His6 leader core peptide
(§2) LctA-core […] NisA-core […]
(§3) ProcM enz yme NisBC enzymes […]
(§4) modified KGGSGVIHAbuIAHEANMNAWQFVFDhbAAS modified IDhbAIDhaLAAbuPGAKAbuGALMGANMKAbuAAbuAHASIHVDhaK […]
(§5) 1: PBS + trypsin 1: PBS + trypsin
(§6) 2: Authentic lacticin 481 2: Authentic Nisin
(§7) 3: MBP_His6_P roc A 3. 3-LctA + trypsin 3: MBP_His6_NisA + trypsin
(§8) 4: MBP_His6_P roc A 3. 3-Lc tA + ProcM + trypsin 4: MBP_His6_NisA + NisBC + trypsin
(§9) Supplementary Figure 3 Bioactivit y assay of lanthipeptides produced as C-term inal fusions to MBP.
(§10) (a) Schem atic drawing of the MBP-fusion vector used for expression of a chim eric peptide consisting of the ProcA3.3 leader sequence fused to the core of LctA (left panel) and NisA (right panel; full sequences shown in Supplem entary Table 5). The sequence of the unm odified and m odified core peptides as reported in the literature are indicated1. The arrow indicates a tr ypsin cleavage site used to release the m ature core peptide. (b) Growth inhibition of lacticin 481- sensitive L. lactis cremonis (HP) by filter- disc spotted peptide solutions. (1) Trypsin treated PBS (negative control); (2) authentic lacticin 481 (positive control); (3) ProcA3.3-LctA produced as C-term inal MBP fusion in E. coli without ProcM co- expression and treated with tr yps in; (4) ProcA3.3- LctA produced as C-term inal MBP fusion in E. coli with ProcM co-ex pression and treated with tr ypsin. […]

[4] = tested on: lacticin 481-sensitive L. lactis cremonis (HP); assay: Growth inhibition, filter-disc bioactivity assay (lacticin 481); assay type: cell-based, L. lactis subsp. cremonis (HP); conditions: ProcA3.3-LctA produced as C-terminal MBP fusion in E. coli with ProcM; 20 µM leader-core peptide, trypsin treated; 40 µl on filter disc
Source text: as §1, §2, §3, §4, §5, §6, §7, §8, §9, §10

| Substance | streptavidin binding, effect of reducing conditions [2] | streptavidin binding, dependence on ProcM co-expression [2] | other results |
| --- | --- | --- | --- |
| AICQIADATRTGENRKCLAAGPHHHHHH (also: sidechain bridge or staple (positions not given here)) [PEP333] | – | – | Ki [1]: 564 nM |
| TNCGRKMSATYSGQKMYCIAAGPHHHHHH (also: bicyclic or more (positions not given here)) [PEP330] | reducing conditions had only minor effects | bound streptavidin regardless of ProcM co-expression | – |
| IDhbAIDhaLAAbuPGAKAbuGALMGANMKAbuAAbuAHASIHVDhaK (bicyclic or more) [nisin, antimicrobial lantibiotic, expressed as C-terminal MBP fusion with NisBC] | – | – | antimicrobial activity [3]: confirmed their antimicrobial activity |
| KGGSGVIHAbuIAHEANMNAWQFVFDhbAAS (bicyclic or more) [lacticin 481] | – | – | antimicrobial activity [4]: confirmed their antimicrobial activity |
| ANCIQHLTHSPTVHKYFCPAAGPHHHHHH (also: bicyclic or more (positions not given here)) [PEP331] | only a slight reduction in binding was noticed in a reducing environment | strictly dependent on post-translational modifications introduced by ProcM | – |
